In patent publication US20230381270A1, “PHARMACEUTICAL COMBINATIONS FOR TREATING CANCER” (POLYPHOR AG, priority 2017, published 2023):
Read-outs that look alike come from different tables or passages of the source.

Tests used:
metastatic breast cancer = details: cited from earlier work
[1] = system: other potential target receptors; assay: In vitro receptor binding studies, other receptors
Description: (§1) Cyclo(-Tyr-His-Ala-Cys-Ser-Ala-^DPro-Dab-Arg-Tyr-Cys-Tyr-Gln-Lys-^DPro-Pro-) having a disulfide bond between Cys4 and Cys11 is also referred as POL6326 herein or balixafortide. POL6326 is a cyclic synthetic peptide consisting of 16 amino acids and an antagonist of the highly conserved chemokine receptor CXCR4 and is being developed as an IV treatment in combination with chemotherapy in patients with leukemias (autologous transplantation).

human CXCR4 receptor = human CXCR4 receptor (Homo sapiens, UniProt P61073); assay: In vitro receptor binding studies
Description: as §1

[2] = Phase I trial of eribulin + POL6326: safety and tolerability (adverse events); type: in vivo, human; details: balixafortide-related; most frequent during Day 1, Cycle 1
Description: This open-label, single-arm, non-randomised Phase I, dose escalation trial enrolled HER2-negative (any oestrogen or progesterone receptor status) females age […] years with histologically confirmed invasive breast cancer, stage IV disease (American Joint Committee on Cancer criteria), evidence of tumour cell CXCR4 expression by immunohistochemistry on tumour tissue (archival primary tumour, metastatic tissue, or from a fresh biopsy), and at least one measurable lesion according to Response Evaluation Criteria in Solid Tumours (RECIST) 1.1 criteria. Patients had previously received […] chemotherapy regimens for metastatic breast cancer (MBC). Patients with hormone receptor positive status must have failed at least one endocrine therapy or be considered unsuitable for endocrine therapy. Eligibility criteria also included an Eastern Cooperative Oncology Group performance status of 0 or 1. This phase I study investigates the combination of eribulin with POL6326 in relapsed metastatic breast cancer. The primary objectives are the safety, tolerability, and pharmacokinetics (PK) of this combination therapy, as well as the maximum tolerated dose (MTD) and recommended phase 2 dose (RP2D) of POL6326 when added to eribulin. Efficacy, as measured by tumor response, was additionally assessed.
Treatment cycles of 21 days each. […]

advanced cancer = details: monotherapy (Galsky 2014); cited from earlier work
[3] = Phase II study, eribulin alone (Cortes et al 2010)
[4] = Phase II study, eribulin alone (Vandat et al 2009)
[5] = relapsed mBC patients in 3rd line and beyond, published data

human CXCR4 receptor, sequence (P61073 whole entry): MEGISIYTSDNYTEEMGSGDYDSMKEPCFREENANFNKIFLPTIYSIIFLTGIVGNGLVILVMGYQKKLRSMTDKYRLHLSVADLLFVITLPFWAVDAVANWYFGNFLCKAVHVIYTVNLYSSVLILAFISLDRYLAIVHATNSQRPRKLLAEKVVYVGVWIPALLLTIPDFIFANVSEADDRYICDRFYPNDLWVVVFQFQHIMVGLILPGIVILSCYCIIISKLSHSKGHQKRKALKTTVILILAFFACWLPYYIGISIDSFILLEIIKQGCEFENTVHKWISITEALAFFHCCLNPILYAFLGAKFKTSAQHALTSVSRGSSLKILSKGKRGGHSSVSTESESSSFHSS

**Q.** Which CBR (metastatic breast cancer; [3]) does the source give for `C=C1C[C@@H]2CC[C@@]34C[C@H]5O[C@H]6[C@@H](O3)[C@H]3O[C@H](CC[C@@H]3O[C@H]6[C@H]5O4)CC(=O)C[C@@H]3[C@@H](OC)[C@@H](C[C@H](O)CN)O[C@H]3C[C@H]3O[C@@H](CC[C@@H]1O2)C[C@@H](C)C3=C` [eribulin, 2-(3-amino-2-hydroxypropyl)hexacosahydro-3-methoxy-26-methyl-20,27-bis(methylene)11,15-18,21-24,28-triepoxy-7,9-ethano-12,15-methano-9H,15H-furo (3,2-i)furo(2′,3′-5,6)pyrano (4,3-b)(1,4)dioxacyclopentacosin-5-(4H)-one] here?
**A.** Its CBR is 17.1%.

**Q.** What about the ORR (metastatic breast cancer; [3]) of the same compound?
**A.** Its ORR is 9%.

**Q.** What about the CBR (metastatic breast cancer; [4]) of the same compound?
**A.** The CBR was 17.2%.

**Q.** And the ORR (metastatic breast cancer; [4])?
**A.** Its ORR is 11.5%.

**Q.** What about the mPFS (metastatic breast cancer; eribulin alone, published trials recruiting similar patients) of the same compound?
**A.** Its mPFS is 2.6-4.1 months.

**Q.** And the “One year OS” value (metastatic breast cancer; eribulin alone, reported)?
**A.** The value was 53.9%.

**Q.** What about the ORR (metastatic breast cancer; randomised Phase III trial (EMBRACE, Cortes 2011)) of the same compound?
**A.** Its ORR is 12%.

**Q.** What about the ORR (metastatic breast cancer; randomised Phase III trial (Kaufman 2015)) of the same compound?
**A.** The ORR was 11%.

**Q.** And the “overall survival (OS)” value (metastatic breast cancer; [5])?
**A.** Its value is 13.1 months.

**Q.** And the “progression-free survival (PFS)” value (metastatic breast cancer; [5])?
**A.** The value was 3.7 months.

**Q.** With “Cyclo(-Tyr-His-Ala-Cys-Ser-Ala-^DPro-Dab-Arg-Tyr-Cys-Tyr-Gln-Lys-^DPro-Pro-) having a disulfide bond between Cys4 and Cys11 [POL6326]” as the compound, how does the “binding to other potential target receptors” value [1] read?
**A.** The value was “general lack of significant binding”.

**Q.** And the “affinity for the human CXCR4 receptor” value (human CXCR4 receptor)?
**A.** The value was “significant affinity”.

**Q.** And the “infusion-related reactions (IRRs)” value [2]?
**A.** Its value is “the majority were low grade”.

**Q.** For LY2510924, which DLT (advanced cancer) is on record?
**A.** The DLT was “abnormal neutrophil count”.
